Measurements from PMC6713100, “Anticancer sulfonamide hybrids that inhibit bladder cancer cells growth and migration as tubulin polymerisation inhibitors” (Journal of Enzyme Inhibition and Medicinal Chemistry, 2019).

What was measured:
HT-29 cell line = test system: HT-29 cell line; design: method as in PMID 26774930; conditions: read-out: IC50 HT-29 cell viability; cited from earlier work
MCF-7 cells = test system: MCF-7 cells; design: method as in PMID 28802125; conditions: read-out: IC50 MCF-7 antiproliferative activity; cited from earlier work
T47D cells = test system: T47D cells; design: method as in PMID 28212337; conditions: read-out: IC50 T47D anticancer activity in vitro; cited from earlier work
MCF-7 = assay: CCK8 antiproliferative assay, breast cancer cells; format: cell-based; conditions: Homo sapiens, MCF7, treatment for 48 h, means of three independent experiments
RT-112 = assay: CCK8 antiproliferative assay, bladder cancer cells RT-112; format: cell-based; conditions: Homo sapiens, treatment for 48 h
Experimental: (§1) Breast cancer cells (MDA-MB-453), liver cancer cells (SNU-423), and bladder cancer cells (UM-UC-3, RT-112, RT4, T24) were purchased from the Shanghai culture company, and cultured at 37 °C in an atmosphere containing 5% CO2. 4,000 cells per well were seeded into a 96-well plate for 24 h and compounds were added to cluture 48 h. Next, 6 mg/ml CCK8 (20 µl) per well was added to explore the cell survival.
(§2) CCK8 method was used to investigate the anticancer activity in vitro of sulfonamide-dithiocarbamate hybrids 13a–13d against cancer cells for 48 h. MDA-MB-453 (breast cancer cells), SNU-423 (liver cancer cells) and RT-112 (bladder cancer cells) were selected to explore the antiproliferative activity. In this work, 5-fluorouracil (5-Fu) was used as the control drug.
(§3) In order to explore the antiproliferation ability, four bladder cancer cell lines (UM-UC-3, RT-112, RT4 and T24) were selected and treated with the hybrid 13d in the 24-well plate for 48 h and 72 h. […] Compared with the cell proliferation of 48 h, the cell proliferation of 72 h was decreased.

SNU-423 = assay: CCK8 antiproliferative assay, liver cancer cells; format: cell-based; conditions: Homo sapiens, treatment for 48 h, means of three independent experiments
Experimental: as §1, §2

[1] = test system: MDA-MB-453, SNU-423 and RT-112; assay: CCK8 antiproliferative assay, all three cancer cells; format: cell-based; conditions: CCK8, 48 h; read-out: IC50 against all three cancer cells
Experimental: as §1, §2

tubulin = assay: Tubulin polymerisation assay in vitro; format: biochemical; conditions: for IC50: 6 mg/ml tubulin, PEM buffer, 37 °C, read-out: IC50 tubulin polymerisation inhibitory activity in vitro
Experimental: (§4) An amount of 6 mg/ml tubulin was resuspended in the PEM buffer (80 mM PIPES (pH 6.9), 1 mM EGTA, 0.5 mM MgCl2, […], 10.2% (v/v) glycerol) and then was preincubated with a sulfonamide-dithiocarbamate hybrid 13d on the ice. The reaction was monitored by a spectrophotometer (Beijng Tianhe Company) at 37 °C to obtain the results of tubulin polymerisation in vitro. RT-112 cells were treated with sulfonamide-dithiocarbamate hybrid 13d for 48 h. Then, slices were fixed by 4% paraformaldehyde for 20 min and washed by PBS for five times. 0.6% Triton-X-100 was added and 0.1% BSA was used to block. β-tubulin antibody was added to incubate overnight at 4 °C. DAPI was used to stain and then images were captured.
Tubulin polymerisation assay investigated that compound 13d inhibited tubulin polymerisation in a concentration dependent manner.

RT4 = assay: Cell proliferation of bladder cancer cells RT4; format: cell-based; conditions: Homo sapiens, RT-4; treatment for 48 h
Experimental: as §1, §3

UM-UC-3 = assay: Cell proliferation of bladder cancer cells UM-UC-3; format: cell-based; conditions: Homo sapiens, UMUC3; treatment for 48 h
Experimental: as §1, §3

RT-112 cells [2] = assay: Transwell migration assay; format: cell-based; conditions: 48 h
Experimental: Transwell chamber was used to do migration assay according to the reported references[17]^,[18]. Ten thousand RT-112 cells containing compound 13d were seeded in the top chambers for 24 h incubation. The bottom chambers were fixed and stained with crystal violet for 2 h. Finally, the chambers were washed with water, and the top membrane was left to dry.
Based on the antiproliferative activity results, compound 13d was selected to investigate the anticancer mechanisms against the RT-112 cell line. Corning transwell plate was used to do migration assay against RT-112 cells for 48 h. With the treatment of sulfonamide-dithiocarbamate hybrid 13d at 0.5, 1 and 2 µM, the migration rate of RT-112 cells was 76%, 40% and 29%, respectively.

T24 = assay: Cell proliferation of bladder cancer cells T24; format: cell-based; conditions: Homo sapiens, T-24; treatment for 48 h
Experimental: as §1, §3

RT-112 cells [3] = assay: Immunostaining of microtubules (β-tubulin antibody); format: cell-based
Experimental: as §4
Tubulin polymerisation inhibitory effects of the sulfonamide-dithiocarbamate hybrid 13d were further explored by the immunofluorescent staining in RT-112 cells. […] However, after the exposure to 0.25 µM of compound 13d, the microtubule organisation in the cytosol were disrupted.

[4] = test system: E-cadherin, N-cadherin, Vimentin, Snail and Slung in RT-112 cells; assay: Western blot of migration-related proteins; format: cell-based; conditions: 48 h, 0.5, 1 and 2 µM
Experimental: RT-112 cells were treated with compound 13d and then lysed in a RIPA lysis buffer. The protein samples of RT-112 cells were electrophoresed on SDS-PAGE. Nextly, targeted proteins were transferred to PVDF membrane and incubated with antibodies (E-cadherin, N-cadherin, Vimentin, Snail and Slung). The markers were visualised by chemiluminescence detection reagents.
To further characterise the migration effect of sulfonamide-dithiocarbamate hybrid 13d, the expression levels of migration-related proteins (E-cadherin, N-cadherin, Vimentin, Snail and Slung) were investigated against RT-112 cells. Compound 13d was treated for 48 h at concentrations of 0.5, 1 and 2 µM, respectively. […] In addition, hybrid 13d increased the expression of E-cadherin in a concentration manner.

RT-112 cells [5] = assay: RT-112 xenograft nude mouse model; format: in vivo, nude mice; conditions: 80 mg/kg intragastric, every day for 21 days
Experimental: In vivo experiments were processed according to guidelines established by the ethics committee of the 4th affiliated hospital of CMU. Mice were implanted with RT-112 cells (1.5 × 10^7 cells per mouse) on the right flank of nude mice. The mice were divided into the saline group and sulfonamide-dithiocarbamate hybrid 13d (80 mg/kg) group (n = 5 mice for each group). Intragastric administration of hybrid 13d was performed every day for a period of 21 days.
In order to investigate the tumor growth effects of compound 13d, the xenograft nude mouse of RT-112 cells were established.

**Q.** For `NS(=O)(=O)c1ccc(Nc2nc(-c3ccc(Cl)cc3)nc3ccccc23)cc1` [Compound 2], which IC50 (HT-29 cell line) is on record?
**A.** 5.45 µM

**Q.** With `NS(=O)(=O)c1ccc(/N=C2\NC(=O)/C(=C3/C(=O)Nc4ccc(Cl)cc43)S2)cc1` [Compound 3] as the compound, how does the IC50 (MCF-7 cells) read?
**A.** 3.96 µM

**Q.** With `C#CCSc1ccnc2c(S(=O)(=O)N(C)CC#C)cccc12` [Compound 4] as the compound, how does the IC50 (T47D cells) read?
**A.** 0.27 µM

**Q.** Which results are given for `O=c1[nH]cc(F)c(=O)[nH]1` [Compound 5-Fu, 5-fluorouracil, reference compound]?
**A.** IC50 (MCF-7): 7.4 ± 0.5 µM; IC50 (RT-112): 13.6 ± 0.2 µM; IC50 (SNU-423): 10.8 ± 0.7 µM

**Q.** Which IC50 (MCF-7) does the source give for `COc1cc(NS(=O)(=O)c2cccc3cccnc23)cc(OC)c1OC` [Compound 11, N-(3,4,5-trimethoxyphenyl)quinoline-8-sulfonamide] here?
**A.** > 40 µM

**Q.** And the melting point?
**A.** 181 to 183 °C

**Q.** What about the IC50 (RT-112) of the same compound?
**A.** > 40 µM

**Q.** And the IC50 [1]?
**A.** > 40 µM

**Q.** And the IC50 (SNU-423)?
**A.** > 40 µM

**Q.** With `COc1cc(N(CCCBr)S(=O)(=O)c2cccc3cccnc23)cc(OC)c1OC` [Compound 12, N-(3-bromopropyl)-N-(3,4,5-trimethoxyphenyl)quinoline-8-sulfonamide] as the compound, how does the IC50 (MCF-7) read?
**A.** > 40 µM

**Q.** What about the melting point of the same compound?
**A.** 129 to 131 °C

**Q.** And the IC50 (RT-112)?
**A.** > 40 µM

**Q.** What about the IC50 [1] of the same compound?
**A.** > 40 µM

**Q.** And the IC50 (SNU-423)?
**A.** > 40 µM

**Q.** For `COc1cc(N(CCCSC(=S)N2CCN(C)CC2)S(=O)(=O)c2cccc3cccnc23)cc(OC)c1OC` [Compound 13a, 3-(N-(3,4,5-trimethoxyphenyl)quinoline-8-sulfonamido)propyl-4-methylpiperazine-1-carbodithioate], which IC50 (MCF-7) is on record?
**A.** 6.4 ± 1.2 µM

**Q.** What about the melting point of the same compound?
**A.** 96 to 98 °C

**Q.** And the IC50 (RT-112)?
**A.** 7.8 ± 0.4 µM

**Q.** And the IC50 (SNU-423)?
**A.** 8.7 ± 0.9 µM

**Q.** Which IC50 (MCF-7) does the source give for `CCN1CCN(C(=S)SCCCN(c2cc(OC)c(OC)c(OC)c2)S(=O)(=O)c2cccc3cccnc23)CC1` [Compound 13b, 3-(N-(3,4,5-trimethoxyphenyl)quinoline-8-sulfonamido)propyl-4-ethylpiperazine-1-carbodithioate] here?
**A.** 8.5 ± 0.7 µM

**Q.** And the melting point?
**A.** 131 to 133 °C

**Q.** And the IC50 (RT-112)?
**A.** 6.8 ± 0.7 µM

**Q.** What about the IC50 (SNU-423) of the same compound?
**A.** 5.4 ± 0.3 µM

**Q.** Which results are given for `COc1cc(N(CCCSC(=S)N2CCN(CCO)CC2)S(=O)(=O)c2cccc3cccnc23)cc(OC)c1OC` [Compound 13c, 3-(N-(3,4,5-trimethoxyphenyl)quinoline-8-sulfonamido)propyl-4–(2-hydroxyethyl)piperazine-1-carbodithioate]?
**A.** IC50 (MCF-7): 4.2 ± 0.1 µM; melting point: 106 to 108 °C; IC50 (RT-112): 4.1 ± 0.6 µM; IC50 (SNU-423): 3.6 ± 0.7 µM; IC50 (tubulin): 3.4 µM; tubulin polymerisation inhibition (tubulin; at 2 µM): weak inhibition; tubulin polymerisation inhibition (tubulin; at 6 µM): significantly inhibited

**Q.** With `COc1cc(N(CCCSC(=S)N2CCN(C(C)=O)CC2)S(=O)(=O)c2cccc3cccnc23)cc(OC)c1OC` [Compound 13d, 3-(N-(3,4,5-trimethoxyphenyl)quinoline-8-sulfonamido)propyl-4-acetylpiperazine-1-carbodithioate] as the compound, how does the IC50 (RT4) read?
**A.** 1.9 µM

**Q.** And the IC50 (MCF-7)?
**A.** 2.8 ± 0.2 µM

**Q.** And the melting point?
**A.** 128 to 129 °C

**Q.** What about the IC50 (RT-112) of the same compound?
**A.** 0.7 ± 0.1 µM

**Q.** What about the IC50 (UM-UC-3) of the same compound?
**A.** 0.9 µM

**Q.** And the “migration rate of RT-112 cells” value (RT-112 cells [2]; 13d at 0.5 µM)?
**A.** 76%

**Q.** What about the “migration rate of RT-112 cells” value (RT-112 cells [2]; 13d at 1 µM) of the same compound?
**A.** 40%

**Q.** And the “migration rate of RT-112 cells” value (RT-112 cells [2]; 13d at 2 µM)?
**A.** 29%

**Q.** What about the IC50 (T24) of the same compound?
**A.** 2.6 µM

**Q.** And the IC50 (SNU-423)?
**A.** 3 ± 0.1 µM

**Q.** And the IC50 (tubulin)?
**A.** 2.9 µM

**Q.** What about the tubulin polymerisation inhibition (tubulin; at 2 µM) of the same compound?
**A.** weak inhibition

**Q.** What about the tubulin polymerisation inhibition (tubulin; at 6 µM) of the same compound?
**A.** significantly inhibited

**Q.** And the “microtubule organisation in the cytosol” value (RT-112 cells [3]; 0.25 µM)?
**A.** disrupted

**Q.** And the “changes of the mitotic spindles” value (RT-112 cells [3]; 0.5 µM)?
**A.** more clearly observed

**Q.** And the “expression of E-cadherin” value [4]?
**A.** increased

**Q.** What about the “expression of N-cadherin” value [4] of the same compound?
**A.** decreased

**Q.** And the “expression of Slung” value [4]?
**A.** decreased

**Q.** And the “expression of Snail” value [4]?
**A.** decreased

**Q.** What about the “expression of Vimentin” value [4] of the same compound?
**A.** decreased

**Q.** What about the average tumor weight (RT-112 cells [5]) of the same compound?
**A.** 0.51 ± 0.21 g

**Q.** What about the “body weights versus control group” value (RT-112 cells [5]) of the same compound?
**A.** no significant difference

**Q.** What about the “inhibitory rate (tumor weight)” value (RT-112 cells [5]) of the same compound?
**A.** 66.67%

**Q.** What about the “tumor volume versus control group” value (RT-112 cells [5]) of the same compound?
**A.** obviously less than that of the control group
